Assay results as given in US20120029187A1, “HALOALKYLSULFONANILIDE DERIVATIVE” (Nissan Chemical Industries, Ltd., priority 2009, published 2012).

Columns and labels:
Format in all cases: in vivo
[1] = tested on: transplanted rice; assay: Test Example 1: preemergence treatment under submerged conditions, effect on crop; conditions: dose 2.52 g/a
How it was run: (§1)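 Score 0–5 by mortality (5: ≥90%; 0: <5%), read 3 weeks post-application. Paddy-type cups: alluvial soil under 4 cm water, weeds seeded plus transplanted 2.5-leaf rice; diluted EC dosed onto water surface same day as sowing, g/a basis; greenhouse 25 to 30° C.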

[2] = tested on: water foxtail; assay: Test Example 4: herbicidal effect in foliage treatment; conditions: dose 3.2 g/a
How it was run: (§2)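 Sowing in sterilized diluvial soil, ~1.5 cm cover; growth 14 d, 25–30° C greenhouse; foliar spray of water-diluted EC at predetermined g/a; scoring 3 wk later on graded scale.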

[3] = tested on: Italian ryegrass; assay: as above; conditions: dose 3.2 g/a
How it was run: as §2

[4] = tested on: common ragweed; assay: as above; conditions: dose 3.2 g/a
How it was run: as §2

[5] = tested on: barnyardgrass; assay: as above; conditions: dose 3.2 g/a
How it was run: as §2

[6] = tested on: common chickweed; assay: as above; conditions: dose 3.2 g/a
How it was run: as §2

[7] = tested on: large crabgrass; assay: as above; conditions: dose 3.2 g/a
How it was run: as §2

[8] = tested on: velvetleaf; assay: as above; conditions: dose 3.2 g/a
How it was run: as §2

[9] = tested on: common lambsquater; assay: as above; conditions: dose 3.2 g/a
How it was run: as §2

[10] = tested on: giant foxtail; assay: as above; conditions: dose 3.2 g/a
How it was run: as §2

[11] = tested on: posumbu knotweed; assay: as above; conditions: dose 3.2 g/a
How it was run: as §2

[12] = tested on: beadstraw; assay: as above; conditions: dose 3.2 g/a
How it was run: as §2

[13] = tested on: redroot pigweed; assay: as above; conditions: dose 3.2 g/a
How it was run: as §2

[14] = tested on: bulrush; assay: Test Example 1: herbicidal effects in preemergence treatment under submerged conditions; conditions: dose 2.52 g/a
How it was run: as §1

[15] = tested on: barnyardgrass; assay: as above; conditions: dose 2.52 g/a
How it was run: as §1

[16] = tested on: ducksalad; assay: as above; conditions: dose 2.52 g/a
How it was run: as §1

[17] = tested on: water foxtail; assay: Test Example 3: herbicidal effects in soil treatment; conditions: dose 3.2 g/a
How it was run: (§3)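 Seeds were sown in sterilized diluvial soil and covered with about 1.5 cm of soil. Compounds, formulated as emulsifiable concentrates and diluted with water, were sprayed evenly over the soil surface at set doses in g/a. Herbicidal effect was scored on a rating scale three weeks later.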

[18] = tested on: Italian ryegrass; assay: as above; conditions: dose 3.2 g/a
How it was run: as §3

[19] = tested on: common ragweed; assay: as above; conditions: dose 3.2 g/a
How it was run: as §3

[20] = tested on: barnyardgrass; assay: as above; conditions: dose 3.2 g/a
How it was run: as §3

[21] = tested on: common chickweed; assay: as above; conditions: dose 3.2 g/a
How it was run: as §3

[22] = tested on: large crabgrass; assay: as above; conditions: dose 3.2 g/a
How it was run: as §3

[23] = tested on: velvetleaf; assay: as above; conditions: dose 3.2 g/a
How it was run: as §3

[24] = tested on: common lambsquater; assay: as above; conditions: dose 3.2 g/a
How it was run: as §3

[25] = tested on: giant foxtail; assay: as above; conditions: dose 3.2 g/a
How it was run: as §3

[26] = tested on: posumbu knotweed; assay: as above; conditions: dose 3.2 g/a
How it was run: as §3

[27] = tested on: redroot pigweed; assay: as above; conditions: dose 3.2 g/a
How it was run: as §3

[28] = tested on: bulrush; assay: Test Example 2: herbicidal effects during the vegetation period under submerged conditions; conditions: treatment during the vegetation period under submerged conditions; dose 2.52 g/a
How it was run: (§4)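 Barnyardgrass, bulrush and ducksalad were co-sown in alluvial soil flooded to 4 cm and grown in a greenhouse at 25 to 30° C. At the 1- or 2-leaf stage, water-diluted emulsifiable concentrates went onto the water surface at set doses (g/a). Herbicidal effect was scored three weeks later on a graded scale.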

[29] = tested on: barnyardgrass; assay: as above; conditions: treatment during the vegetation period under submerged conditions; dose 2.52 g/a
How it was run: as §4

[30] = tested on: ducksalad; assay: as above; conditions: treatment during the vegetation period under submerged conditions; dose 2.52 g/a
How it was run: as §4

[31] = three weeks after the application

CCOC(=O)N(c1ccccc1CN1COC2(CCCCC2)CC1=O)S(=O)(=O)C(F)(F)F [II-68]
a: transplanted rice, effect on crop (evaluation scale 0-5) [1]: 3 (mortality of at least 40% and less than 70%)
G: water foxtail, herbicidal effect ([2]; three weeks after application): 3 (mortality of at least 40% and less than 70%)
H: Italian ryegrass, herbicidal effect ([3]; three weeks after application): 1 (mortality of at least 5% and less than 20%)
J: common ragweed, herbicidal effect ([4]; three weeks after application): 3 (mortality of at least 40% and less than 70%)
A: barnyardgrass, herbicidal effect ([5]; three weeks after application): 5 (mortality of 90% or above (nearly complete death))
N: common chickweed, herbicidal effect ([6]; three weeks after application): 4 (mortality of at least 70% and less than 90%)
D: large crabgrass, herbicidal effect ([7]; three weeks after application): 4 (mortality of at least 70% and less than 90%)
I: velvetleaf, herbicidal effect ([8]; three weeks after application): 4 (mortality of at least 70% and less than 90%)
L: common lambsquater, herbicidal effect ([9]; three weeks after application): 4 (mortality of at least 70% and less than 90%)
E: giant foxtail, herbicidal effect ([10]; three weeks after application): 5 (mortality of 90% or above (nearly complete death))
M: posumbu knotweed, herbicidal effect ([11]; three weeks after application): 2 (mortality of at least 20% and less than 40%)
O: beadstraw, herbicidal effect ([12]; three weeks after application): 3 (mortality of at least 40% and less than 70%)
K: redroot pigweed, herbicidal effect ([13]; three weeks after application): 2 (mortality of at least 20% and less than 40%)
B: bulrush, herbicidal effect (evaluation scale 0-5) [14]: 5 (mortality of 90% or above (nearly complete death))
A: barnyardgrass, herbicidal effect (evaluation scale 0-5) [15]: 5 (mortality of 90% or above (nearly complete death))
C: ducksalad, herbicidal effect (evaluation scale 0-5) [16]: 5 (mortality of 90% or above (nearly complete death))
G: water foxtail, herbicidal effect (evaluation scale 0-5) [17]: 5 (mortality of 90% or above (nearly complete death))
H: Italian ryegrass, herbicidal effect (evaluation scale 0-5) [18]: 5 (mortality of 90% or above (nearly complete death))
J: common ragweed, herbicidal effect (evaluation scale 0-5) [19]: 2 (mortality of at least 20% and less than 40%)
A: barnyardgrass, herbicidal effect (evaluation scale 0-5) [20]: 5 (mortality of 90% or above (nearly complete death))
N: common chickweed, herbicidal effect (evaluation scale 0-5) [21]: 4 (mortality of at least 70% and less than 90%)
D: large crabgrass, herbicidal effect (evaluation scale 0-5) [22]: 5 (mortality of 90% or above (nearly complete death))
I: velvetleaf, herbicidal effect (evaluation scale 0-5) [23]: 5 (mortality of 90% or above (nearly complete death))
L: common lambsquater, herbicidal effect (evaluation scale 0-5) [24]: 4 (mortality of at least 70% and less than 90%)
E: giant foxtail, herbicidal effect (evaluation scale 0-5) [25]: 5 (mortality of 90% or above (nearly complete death))
M: posumbu knotweed, herbicidal effect (evaluation scale 0-5) [26]: 5 (mortality of 90% or above (nearly complete death))
K: redroot pigweed, herbicidal effect (evaluation scale 0-5) [27]: 3 (mortality of at least 40% and less than 70%)
B: bulrush, herbicidal effect (evaluation scale 0-5) [28]: 5 (mortality of 90% or above (nearly complete death))
A: barnyardgrass, herbicidal effect (evaluation scale 0-5) [29]: 5 (mortality of 90% or above (nearly complete death))
C: ducksalad, herbicidal effect (evaluation scale 0-5) [30]: 5 (mortality of 90% or above (nearly complete death))

CCOC(=O)N(c1ccccc1CN1OCCOC1=O)S(=O)(=O)C(F)(F)F [III-2]
a: transplanted rice, effect on crop (evaluation scale 0-5) [1]: 0 (mortality of less than 5% (almost ineffective))
G: water foxtail, herbicidal effect [2, 31]: 5 (mortality of 90% or above (nearly complete death))
H: Italian ryegrass, herbicidal effect [3, 31]: 3 (mortality of at least 40% and less than 70%)
J: common ragweed, herbicidal effect [4, 31]: 4 (mortality of at least 70% and less than 90%)
A: barnyardgrass, herbicidal effect [5, 31]: 4 (mortality of at least 70% and less than 90%)
N: common chickweed, herbicidal effect [6, 31]: 3 (mortality of at least 40% and less than 70%)
D: large crabgrass, herbicidal effect [7, 31]: 0 (mortality of less than 5% (almost ineffective))
I: velvetleaf, herbicidal effect [8, 31]: 4 (mortality of at least 70% and less than 90%)
L: common lambsquater, herbicidal effect [9, 31]: 3 (mortality of at least 40% and less than 70%)
E: giant foxtail, herbicidal effect [10, 31]: 0 (mortality of less than 5% (almost ineffective))
M: posumbu knotweed, herbicidal effect [11, 31]: 4 (mortality of at least 70% and less than 90%)
O: beadstraw, herbicidal effect [12, 31]: 3 (mortality of at least 40% and less than 70%)
K: redroot pigweed, herbicidal effect [13, 31]: 3 (mortality of at least 40% and less than 70%)
B: bulrush, herbicidal effect (evaluation scale 0-5) [14]: 5 (mortality of 90% or above (nearly complete death))
A: barnyardgrass, herbicidal effect (evaluation scale 0-5) [15]: 4 (mortality of at least 70% and less than 90%)
C: ducksalad, herbicidal effect (evaluation scale 0-5) [16]: 5 (mortality of 90% or above (nearly complete death))
herbicidal effect, G: water foxtail [17]: 5 (mortality of 90% or above (nearly complete death))
herbicidal effect, H: Italian ryegrass [18]: 3 (mortality of at least 40% and less than 70%)
herbicidal effect, J: common ragweed [19]: 0 (mortality of less than 5% (almost ineffective))
herbicidal effect, A: barnyardgrass [20]: 4 (mortality of at least 70% and less than 90%)
herbicidal effect, N: common chickweed [21]: 3 (mortality of at least 40% and less than 70%)
herbicidal effect, D: large crabgrass [22]: 0 (mortality of less than 5% (almost ineffective))
herbicidal effect, I: velvetleaf [23]: 5 (mortality of 90% or above (nearly complete death))
herbicidal effect, L: common lambsquater [24]: 5 (mortality of 90% or above (nearly complete death))
herbicidal effect, E: giant foxtail [25]: 0 (mortality of less than 5% (almost ineffective))
herbicidal effect, M: posumbu knotweed [26]: 4 (mortality of at least 70% and less than 90%)
herbicidal effect, K: redroot pigweed [27]: 0 (mortality of less than 5% (almost ineffective))
B: bulrush, herbicidal effect (evaluation scale 0-5) [28]: 5 (mortality of 90% or above (nearly complete death))
A: barnyardgrass, herbicidal effect (evaluation scale 0-5) [29]: 3 (mortality of at least 40% and less than 70%)
C: ducksalad, herbicidal effect (evaluation scale 0-5) [30]: 4 (mortality of at least 70% and less than 90%)

CCOC(=O)N(c1ccccc1CN1OCC(C)OC1=O)S(=O)(=O)C(F)(F)F (stereo not drawn) [III-4]
a: transplanted rice, effect on crop (evaluation scale 0-5) [1]: 0 (mortality of less than 5% (almost ineffective))
G: water foxtail, herbicidal effect [2, 31]: 5 (mortality of 90% or above (nearly complete death))
H: Italian ryegrass, herbicidal effect [3, 31]: 1 (mortality of at least 5% and less than 20%)
J: common ragweed, herbicidal effect [4, 31]: 4 (mortality of at least 70% and less than 90%)
A: barnyardgrass, herbicidal effect [5, 31]: 5 (mortality of 90% or above (nearly complete death))
N: common chickweed, herbicidal effect [6, 31]: 5 (mortality of 90% or above (nearly complete death))
D: large crabgrass, herbicidal effect [7, 31]: 3 (mortality of at least 40% and less than 70%)
I: velvetleaf, herbicidal effect [8, 31]: 3 (mortality of at least 40% and less than 70%)
L: common lambsquater, herbicidal effect [9, 31]: 1 (mortality of at least 5% and less than 20%)
E: giant foxtail, herbicidal effect [10, 31]: 4 (mortality of at least 70% and less than 90%)
M: posumbu knotweed, herbicidal effect [11, 31]: 3 (mortality of at least 40% and less than 70%)
O: beadstraw, herbicidal effect [12, 31]: 3 (mortality of at least 40% and less than 70%)
K: redroot pigweed, herbicidal effect [13, 31]: 0 (mortality of less than 5% (almost ineffective))
B: bulrush, herbicidal effect (evaluation scale 0-5) [14]: 5 (mortality of 90% or above (nearly complete death))
A: barnyardgrass, herbicidal effect (evaluation scale 0-5) [15]: 5 (mortality of 90% or above (nearly complete death))
C: ducksalad, herbicidal effect (evaluation scale 0-5) [16]: 5 (mortality of 90% or above (nearly complete death))
herbicidal effect, G: water foxtail [17]: 5 (mortality of 90% or above (nearly complete death))
herbicidal effect, H: Italian ryegrass [18]: 5 (mortality of 90% or above (nearly complete death))
herbicidal effect, J: common ragweed [19]: 3 (mortality of at least 40% and less than 70%)
herbicidal effect, A: barnyardgrass [20]: 5 (mortality of 90% or above (nearly complete death))
herbicidal effect, N: common chickweed [21]: 4 (mortality of at least 70% and less than 90%)
herbicidal effect, D: large crabgrass [22]: 5 (mortality of 90% or above (nearly complete death))
herbicidal effect, I: velvetleaf [23]: 5 (mortality of 90% or above (nearly complete death))
herbicidal effect, L: common lambsquater [24]: 5 (mortality of 90% or above (nearly complete death))
herbicidal effect, E: giant foxtail [25]: 5 (mortality of 90% or above (nearly complete death))
herbicidal effect, M: posumbu knotweed [26]: 5 (mortality of 90% or above (nearly complete death))
herbicidal effect, K: redroot pigweed [27]: 3 (mortality of at least 40% and less than 70%)
B: bulrush, herbicidal effect (evaluation scale 0-5) [28]: 5 (mortality of 90% or above (nearly complete death))
A: barnyardgrass, herbicidal effect (evaluation scale 0-5) [29]: 5 (mortality of 90% or above (nearly complete death))
C: ducksalad, herbicidal effect (evaluation scale 0-5) [30]: 5 (mortality of 90% or above (nearly complete death))
